Usually Ki stands for the dissociation constant of the complex between target and ligand, obtained from inhibition or displacement.

The target of assay [1] is purified human Factor XIa (Homo sapiens (Human), UniProt P03951). Briefly: Factor XIa Assay. The following applies: purified human Factor XIa 40 pM; substrate Z-Gly-Pro-Arg-AFC 100 μM; 50 mM HEPES pH 7.4; read-out: Human FXIa Ki. In kind it is biochemical. Summed up:
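Purified human FXIa at 40 pM final with fluorogenic Z-Gly-Pro-Arg-AFC at 100 μM, in 50 mM HEPES pH 7.4, 150 mM NaCl, 5 mM CaCl2, 0.1% PEG 8000, at rt or 37° C. Initial velocities measured after enzyme–inhibitor equilibration; Ki derived from Vo/Vi versus [I] assuming competitive inhibition.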

The target in assay [2] is purified Human plasma Kallikrein (Homo sapiens (Human), UniProt P03952). Briefly: Kallikrein Assay. In kind it is biochemical. The method, boiled down:
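Purified human plasma kallikrein (0.5 nM) with fluorogenic Ac-K-P-R-AFC ([…]) in 50 mM HEPES pH 7.4, 150 mM NaCl, 5 mM CaCl2, 0.1% PEG 8000, at rt or 37 °C. Substrate hydrolysis rate read with and without inhibitor; IC50 from four-parameter logistic fit, converted to Ki by Cheng–Prusoff.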

Setting [3] is: purified Human plasma Kallikrein 0.5 nM, substrate Acetyl-K-P-R-AFC, 50 mM HEPES pH 7.4, Ki from IC50 by Cheng Prusoff.

Each structure is given as a SMILES string. Read-outs that look alike come from different tables or passages of the source.

Chain of purified Human plasma Kallikrein (P03952 391-638): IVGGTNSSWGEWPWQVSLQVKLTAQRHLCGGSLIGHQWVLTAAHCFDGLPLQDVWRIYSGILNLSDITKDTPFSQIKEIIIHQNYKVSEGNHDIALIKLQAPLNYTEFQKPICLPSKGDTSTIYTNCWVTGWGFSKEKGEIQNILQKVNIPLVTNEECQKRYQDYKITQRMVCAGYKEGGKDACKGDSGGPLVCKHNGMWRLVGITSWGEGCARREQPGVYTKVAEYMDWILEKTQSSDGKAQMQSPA
Chain of purified Human plasma Kallikrein (P03952 20-390 partner): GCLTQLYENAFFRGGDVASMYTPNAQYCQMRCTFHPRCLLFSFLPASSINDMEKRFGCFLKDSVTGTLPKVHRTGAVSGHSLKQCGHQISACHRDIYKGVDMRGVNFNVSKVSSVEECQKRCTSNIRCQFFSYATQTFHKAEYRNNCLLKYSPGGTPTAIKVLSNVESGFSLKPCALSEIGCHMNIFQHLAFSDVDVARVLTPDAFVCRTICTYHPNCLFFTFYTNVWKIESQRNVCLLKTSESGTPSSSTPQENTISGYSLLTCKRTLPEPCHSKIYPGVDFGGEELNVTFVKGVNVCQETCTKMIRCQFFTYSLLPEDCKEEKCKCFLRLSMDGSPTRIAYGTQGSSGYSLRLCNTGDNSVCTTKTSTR
Chain of purified human Factor XIa (P03951 388-625): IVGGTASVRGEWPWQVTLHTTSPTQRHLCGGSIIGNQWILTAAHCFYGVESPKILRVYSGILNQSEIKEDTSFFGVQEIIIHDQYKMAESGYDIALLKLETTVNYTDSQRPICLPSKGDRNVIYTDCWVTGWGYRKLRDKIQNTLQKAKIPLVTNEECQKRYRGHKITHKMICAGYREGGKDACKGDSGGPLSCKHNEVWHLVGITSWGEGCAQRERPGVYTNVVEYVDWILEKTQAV
Chain of purified human Factor XIa (P03951 19-387 partner): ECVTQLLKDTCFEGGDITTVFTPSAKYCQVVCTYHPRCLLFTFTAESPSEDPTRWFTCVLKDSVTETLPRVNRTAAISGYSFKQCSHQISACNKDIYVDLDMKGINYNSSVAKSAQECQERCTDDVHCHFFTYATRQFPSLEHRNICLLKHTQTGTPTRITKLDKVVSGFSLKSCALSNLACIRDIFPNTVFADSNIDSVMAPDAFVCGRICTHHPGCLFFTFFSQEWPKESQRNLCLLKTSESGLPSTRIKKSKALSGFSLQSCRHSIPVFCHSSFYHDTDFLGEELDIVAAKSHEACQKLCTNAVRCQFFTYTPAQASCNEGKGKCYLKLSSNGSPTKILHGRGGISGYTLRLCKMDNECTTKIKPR

Regarding `O=C(C1CCCCC(c2ccc(-c3cc(Cl)ccc3-n3cnnn3)c[n+]2[O-])c2cccc(c2)-c2cc(F)ccc2N1)N1CCCC1` (single isomer, unassigned) [Example 79-d, 5-(5-Chloro-2-(1H-tetrazol-1-yl)phenyl)-2-(2^5-fluoro-4-(pyrrolidine-1-carbonyl)-3-aza-1(1,3),2(1,2)-dibenzenacyclononaphane-9-yl)pyridine 1-oxide], the figures for the inhibition constant (Ki) in assay [1] and in assay [2] (setting [3]) were 30.3 nM and 2170 nM, respectively.
Taken in the same sequence, the figures for `COC(=O)Nc1ccc2c(c1)NC(=O)CCCC[C@H](c1ccc(-c3cc(Cl)ccc3-n3cc(C)cn3)c[n+]1[O-])c1nc-2c(C)[nH]1` (single isomer, unassigned) [Example 141] were 0.49 nM and 82.8 nM.
Taken in the same sequence, the figures for `Nc1ccc2c(c1)NC(=O)CCCCC(c1ccc(-c3c(F)ccc(Cl)c3F)c[n+]1[O-])c1nc-2c[nH]1` (single isomer, unassigned) [Example 108-a] were 0.18 nM and 1.02 nM.
Taken in the same sequence, the figures for `COC(=O)Nc1ccc2c(c1)NC(=O)CCCC[C@H](c1ccc(-c3cc(F)ccc3OC(F)(F)F)c[n+]1[O-])c1nc-2c(C)[nH]1` (single isomer, unassigned) [Example 132] were 0.22 nM and 5.94 nM.
Turning to `COC(=O)Nc1ccc2c(c1)NC(=O)CCCCC(c1ccc(-c3cc(Cl)ccc3-n3cnnn3)c[n+]1[O-])c1nc-2c[nH]1` (single isomer, unassigned) [Example 98-a, (Z)-5-(5-chloro-2-(1H-tetrazol-1-yl)phenyl)-2-(2^4-((methoxycarbonyl)amino)-4-oxo-1^1H-3-aza-1(4,2)-imidazola-2(1,2) -benzenacyclononaphane-9-yl)pyridine 1-oxide], the Ki came to 0.51 nM in assay [1] and 0.49 nM in assay [2] (setting [3]).
For `COC(=O)Nc1ccc2c(c1)NC(=O)CC1CC1CC(c1ccc(-c3c(C(F)F)ccc(C)c3F)c[n+]1[O-])c1nc-2c(C)[nH]1` (racemic) [Example 158], in that order: 1.07 nM and 4.92 nM.
For `O=C1CCCCC(c2ccc(-c3cc(Cl)ccc3-n3cnnn3)c[n+]2[O-])c2cc[n+]([O-])c(c2)-c2cc(F)ccc2N1` (stereo not shown) [Example 80, 9-(5-(5-chloro-2-(1h-tetrazol-1-yl)phenyl)-1-oxidopyridin-2-yl)-2^5-fluoro-4-oxo-3-aza-1(2,4)-pyridin-1-iuma-2(1,2)-benzenacyclononaphane 1^1-oxide], in that order: 0.59 nM and 13.3 nM.
Taken in the same sequence, the figures for `COC(=O)Nc1ccc2c(c1)NC(=O)CC1CC1CC(c1ccc(-c3c(F)ccc(Cl)c3F)c[n+]1[O-])c1nc-2c[nH]1` (racemic) [Example 153] were 3 nM and 14.4 nM.
For the compound `COC(=O)Nc1ccc2c(c1)NC(=O)CCCC[C@H](c1ccc(-c3c(F)ccc(Cl)c3F)c[n+]1[O-])c1cc-2ccn1` (single isomer, unassigned) [Example 73], the Ki in assay [1] was determined as 0.34 nM; in assay [2] (setting [3]) it was 1.08 nM.
For `COC(=O)Nc1ccc2c(c1)NC(=O)CC1CC1CC(c1ccc(-c3c(F)cccc3C(F)F)c[n+]1[O-])c1nc-2c(C)[nH]1` (racemic) [Example 156], the results for the Ki in assay [1] and in assay [2] (setting [3]) were 1.55 nM and 13.6 nM, respectively.
As for `COC(=O)Nc1ccc2c(c1)NC(=O)CCCC[C@H](c1ccc(-c3c(F)ccc(Cl)c3F)c[n+]1[O-])c1cc-2ncc1F` (single isomer, unassigned) [Example 72], the figures for the Ki in assay [1] and in assay [2] (setting [3]) were 0.5 nM and 2.96 nM, respectively.
Regarding `Cc1[nH]c2nc1-c1ccc(N)cc1NC(=O)CCCC[C@@H]2c1ccc(-c2c(F)ccc(Cl)c2F)c[n+]1[O-]` (single isomer, unassigned) [Example 128], the Ki in assay [1] turned out to be 0.14 nM; in assay [2] (setting [3]), 0.74 nM.
For `COC(=O)Nc1ccc2c(c1)NC(=O)CCCC[C@H](c1ccc(-c3cc(Cl)ccc3C#N)c[n+]1[O-])c1cccc-2c1` (single isomer, unassigned) [Example 31], in that order: 0.8 nM and 2.68 nM.
As to `COC(=O)Nc1ccc2c(c1)NC(=O)CCCC[C@H](c1ccc(-c3cc(Cl)ccc3C(F)(F)F)c[n+]1[O-])c1cccc-2c1` (single isomer, unassigned) [Example 32], the results for the Ki in assay [1] and in assay [2] (setting [3]) were 0.83 nM and 2.95 nM, respectively.
In the case of `COC(=O)Nc1ccc2c(c1)NC(=O)CC1CC1CC(c1ccc(-c3c(C(F)F)ccc(Cl)c3F)c[n+]1[O-])c1nc-2c(C)[nH]1` (racemic) [Example 157], the Ki in assay [1] is 0.45 nM; in assay [2] (setting [3]), 2.04 nM.
Taken in the same sequence, the figures for `O=C1CCCC[C@H](c2ccc(-c3cc(Cl)ccc3-n3cnnn3)c[n+]2[O-])c2cccc(c2)-c2cc(F)ccc2N1` [Example 2-a, (S) 5-(5-chloro-2-(1H-tetrazol-1-yl)phenyl)-2-(2^5-fluoro-4-oxo-3-aza-1(1,3),2(1,2)-dibenzenacyclononaphane-9-yl)pyridine 1-oxide] were 0.09 nM and 2.7 nM.
For `CCc1[nH]c2nc1-c1ccc(NC(=O)OC)cc1NC(=O)C(C)CCC[C@@H]2c1ccc(-c2c(F)cccc2F)c[n+]1[O-]` (single isomer, unassigned) [Example 144], in that order: 0.46 nM and 1.35 nM.
For `COC(=O)Nc1ccc2c(c1)NC(=O)CCCC[C@H](c1ccc(-c3c(C(F)(F)F)ccc(Cl)c3F)c[n+]1[O-])c1nc-2c(C)[nH]1` (single isomer, unassigned) [Example 123], in that order: 0.42 nM and 1.41 nM.
As for `COC(=O)Nc1ccc2c(c1)NC(=O)CCCCC(c1ccc(-c3c(F)cccc3OC(F)F)c[n+]1[O-])c1nc-2c(C2CC2)[nH]1` (single isomer, unassigned) [Example 113-a, (Z)-2-(1^5-cyclopropyl-2^4-((methoxycarbonyl)amino)-4-oxo-1^1H-3-aza-1(4,2)-imidazola-2(1,2)-benzenacyclononaphane-9-yl)-5-(2-(difluoromethoxy)-6-fluorophenyl)pyridine 1-oxide], the Ki in assay [1] came to 0.21 nM; in assay [2] (setting [3]), 1.87 nM.
Turning to `COC(=O)Nc1cc(F)c2c(c1)NC(=O)C(C)CCCC(c1ccc(-c3c(F)ccc(Cl)c3F)c[n+]1[O-])c1cccc-2c1` (single isomer, unassigned) [Example 85-c, 5-(3-Chloro-2,6-difluorophenyl)-2-(2^6-fluoro-2^4-((methoxycarbonyl)amino)-5-methyl-4-oxo-3-aza-1(1,3),2(1,2)-dibenzenacyclononaphane-9-yl)pyridine 1-oxide], the Ki in assay [1] stood at 0.97 nM; in assay [2] (setting [3]), 2.59 nM.
On to `COC(=O)Nc1ccc2c(c1)NC(=O)CCCC[C@H](c1ccc(-c3c(F)ccc(Cl)c3F)c[n+]1[O-])c1cc(F)c(F)c-2c1` (single isomer, unassigned) [Example 69], for which the Ki in assay [1] was 1.87 nM; in assay [2] (setting [3]), 6.79 nM.
In the case of `O=C1CCCC[C@H](c2ccc(-c3cc(Cl)ccc3-n3cnnn3)c[n+]2[O-])c2cccc(c2)-c2cc(C(=O)O)ccc2N1` [Example 4-a, 2-(2^5-Carboxy-4-oxo-3-aza-1(1,3),2(1,2)-dibenzenacyclononaphane-9-yl)-5-(5-chloro-2-(1H-tetrazol-1-yl)phenyl)pyridine 1-oxide], the Ki in assay [1] was 0.31 nM; in assay [2], 3.41 nM.
As to `COC(=O)Nc1ccc2c(c1)NC(=O)CCCCC(c1ccc(-c3cc(Cl)ccc3-n3cnnn3)c[n+]1[O-])c1cc(F)cc-2c1` (stereo not shown) [Example 52, 5-(5-chloro-2-(1h-tetrazol-1-yl)phenyl)-2-(1^5-fluoro-2^4-((methoxycarbonyl)amino)-4-oxo-3-aza-1(1,3),2(1,2) -dinenzenacyclononaphane-9-yl)pyridine 1-oxide], the figures for the Ki in assay [1] and in assay [2] (setting [3]) were 0.32 nM and 1.43 nM, respectively.

(Values after patent publication US10214512B2, “Factor XIA inhibitors” (MERCK SHARP & DOHME CORP., priority 2015, dated 2019).)
